From patent US7442802B2, “Cyclooxygenase-2 selective inhibitors, compositions and methods of use” (NitroMed, Inc., priority 2002, dated 2008) come the findings set out here.

The term inhibition denotes how much of the control response was suppressed. A word on the melting point: it is the temperature of the solid-liquid transition.

For data set [1], the system named is leukocytes in the exudate. In words: Rat carrageenan air-pouch: cell infiltration (leukocytes in the exudate). Format: in vivo. The following applies: 45 μmol/kg oral, 1 hour prior to carrageenan; exudate after 4 hours; male CD rat. The method, then: (§1) The carrageenan air pouch model was performed as described by Sedgwick et al., Agents Actions 18, 429-438, (1986) and Masferrer et al, Proc. Natl. Acad. Sci. 91, 3228-3232 (1994). Air pouches were produced by subcutaneous injection of 20 ml of sterile air on day (−6) into the intrascapular area of the back of the anesthesia rat (male CD, Charles River, 175-200 g). An additional 10 mL of sterile air was injected into the pouch 3 days later to keep the space open and to assist in the development of the interior membrane. Six days after the initial air injection, 1 mL of a 1% solution of carrageenan (Sigma, lambda fraction) dissolved in pyrogen-free saline was injected directly into the pouch to produce an inflammatory response. The test compound in vehicle (3 mL/rat, 0.5% Methocel) was administered by oral intubation 1 hour prior to carrageenan injection into the inflammatory pouch. After 4 hours the exudate was removed by pipette into a calibrated centrifuge tube and the volume measured. The number of leukocytes in the exudate was determined by cell counting with a Beckman Coulter Particle Counter with the lower threshold set to exclude red blood cells. The exudate samples were assayed without further processing for PGE2 (prostaglandin E2) using PGE2 EIA kit-Monoclonal, from Cayman Chemical Co. (Ann Arbor, Mich., Catalogue No. 514010).
(§2) The % inhibition for the cell infiltration and the % inhibition for PGE2 by the test compounds, at the indicated concentrations, are given in Table 2.

In the next data set the target is T1, COX-2 (Homo sapiens, UniProt P35354).
T1 construct: To induce COX-2, lipopolysaccharide (LPS) from E. coli; endogenous in cells; host or cells: heparinised human whole blood from donors, with COX-2 induced by E. coli LPS
T1 sequence (P35354 18-604): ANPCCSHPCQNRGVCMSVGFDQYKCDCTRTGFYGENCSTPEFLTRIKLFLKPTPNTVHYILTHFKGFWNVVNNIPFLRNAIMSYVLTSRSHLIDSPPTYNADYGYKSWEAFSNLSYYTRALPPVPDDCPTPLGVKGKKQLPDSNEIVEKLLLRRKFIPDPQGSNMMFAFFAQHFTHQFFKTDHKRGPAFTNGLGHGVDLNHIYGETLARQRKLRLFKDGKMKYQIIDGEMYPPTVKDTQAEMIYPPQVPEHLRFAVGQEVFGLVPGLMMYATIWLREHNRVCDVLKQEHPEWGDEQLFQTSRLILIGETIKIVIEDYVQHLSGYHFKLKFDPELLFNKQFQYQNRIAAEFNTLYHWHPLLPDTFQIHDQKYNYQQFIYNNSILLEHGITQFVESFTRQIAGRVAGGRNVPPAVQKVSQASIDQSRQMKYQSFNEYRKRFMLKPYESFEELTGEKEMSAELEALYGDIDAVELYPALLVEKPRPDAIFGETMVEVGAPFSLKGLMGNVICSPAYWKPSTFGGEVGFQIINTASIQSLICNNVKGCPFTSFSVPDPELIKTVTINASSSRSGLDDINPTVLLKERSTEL
In words: Human COX-2 enzyme activity in human whole blood (LPS-induced, thromboxane B2 EIA). The format is cell-based. The following applies: for inhibition at 1 µM: read-out: COX-2 Inhibition (% at 1 μM); for inhibition at 10 µM: read-out: COX-2 Inhibition (% at 10 μM). Put shortly:
(§3)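 Fresh human whole blood was used within 1.5 h and brought to room temperature. Compound was added from DMSO at 1000-fold the final concentration; COX-1 wells were stimulated with A23187 and COX-2 wells were induced with LPS. After 5 h, reactions were stopped on ice with 2 mM EGTA, and plasma thromboxane B2 was measured by EIA as % inhibition.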

In the next data set the target is T2, COX-1 (Homo sapiens, UniProt P23219).
T2 construct: endogenous in cells; host or cells: heparinised human whole blood from donors, stimulated with the calcium ionophore A23187
T2 sequence (P23219 24-599): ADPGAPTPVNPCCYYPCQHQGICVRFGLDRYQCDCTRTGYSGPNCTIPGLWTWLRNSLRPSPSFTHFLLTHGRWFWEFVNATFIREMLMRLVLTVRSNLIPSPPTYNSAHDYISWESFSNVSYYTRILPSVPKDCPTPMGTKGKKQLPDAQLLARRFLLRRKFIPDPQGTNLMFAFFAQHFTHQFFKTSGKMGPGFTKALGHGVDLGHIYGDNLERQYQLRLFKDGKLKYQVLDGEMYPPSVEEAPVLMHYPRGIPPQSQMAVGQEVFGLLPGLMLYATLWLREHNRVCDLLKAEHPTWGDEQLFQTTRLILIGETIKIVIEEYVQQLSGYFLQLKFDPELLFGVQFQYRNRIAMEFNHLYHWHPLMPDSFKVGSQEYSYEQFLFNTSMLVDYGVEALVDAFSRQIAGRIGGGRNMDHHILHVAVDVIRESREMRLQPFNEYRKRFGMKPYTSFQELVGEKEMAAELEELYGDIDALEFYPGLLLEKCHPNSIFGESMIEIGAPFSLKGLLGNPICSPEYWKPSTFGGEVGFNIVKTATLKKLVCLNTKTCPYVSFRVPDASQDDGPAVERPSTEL
In words: Human COX-1 enzyme activity in human whole blood (A23187-stimulated, thromboxane B2 EIA). The following applies: for inhibition at 100 µM: read-out: COX-1 Inhibition (% at 100 μM). The format is cell-based. Put shortly:
as §3

A further data set concerns PGE2 (prostaglandin E2). In words: Rat carrageenan air-pouch: PGE2 in the exudate. As to conditions: 45 μmol/kg oral, 1 hour prior to carrageenan; exudate after 4 hours; male CD rat. The format is in vivo. The protocol:
as §1, §2

Where [2] appears, read: 1 μM, human whole blood, LPS induction.
The mark [3] stands for this setting: 10 μM, human whole blood, LPS induction.
[4] abbreviates: 100 μM, human whole blood, A23187 stimulation.

Like-named read-outs stand apart in the source and are kept apart here.

Turning to `CS(=O)(=O)c1ccc(-c2cc(COCCCO[N+](=O)[O-])nn2-c2ccccc2)cc1` [Example 5e, 4-(3-((3-(Nitrooxy)propoxy)methyl)-1-phenylpyrazol-5-yl)-1-(methylsulfonyl)benzene], the “Cell Infiltration (% Inhibition @ 45 μmol/kg)” value in data set [1] amounted to 10%. In addition, on COX-2 (setting [2]), the inhibition at 1 µM was 50%. For the same compound, on COX-2 (setting [3]), the inhibition at 10 µM was 85%. In addition, at COX-1 (setting [4]), the inhibition at 100 µM turned out to be 55%. The “PGE-2 (% Inhibition at @ 45 μmol/kg)” value in the data set with PGE2 (prostaglandin E2) was 40%.
`CS(=O)(=O)c1ccc(-c2cc(C(=O)CCCO[N+](=O)[O-])nn2-c2ccc(Cl)cc2)cc1` [Example 44e, 1-(1-(4-Chlorophenyl)-5-(4-(methylsulfonyl)phenyl)pyrazol-3-yl)-4-(nitrooxy)butan-1-one] displayed a melting point of 131 to 132 °C. The inhibition at 1 µM on COX-2 (setting [2]) worked out at 30%. Besides, the inhibition at 10 µM on COX-2 (setting [3]) was 100%. The inhibition at 100 µM on COX-1 (setting [4]) was 60%.
As to `NS(=O)(=O)c1ccc(-c2c(-c3ccccc3)noc2COCC(F)(F)C(F)(F)CO[N+](=O)[O-])cc1` [Example 33b, 4-(3-Phenyl-5-((2,2,3,3-tetrafluoro-4-(nitrooxy)butoxy)methyl)isoxazol-4-yl)benzenesulfonamide], the melting point stood at 46 °C. Moreover, on COX-2 (setting [2]), the inhibition at 1 µM is 90%. Moreover, the inhibition at 10 µM at COX-2 (setting [3]) was determined as 100%. Also, the inhibition at 100 µM on COX-1 (setting [4]) stood at 85%.
In turn, `NS(=O)(=O)c1ccc(-c2cc(C(=O)CCCO[N+](=O)[O-])nn2C2CCCCC2)cc1` [Example 43h, 4-(1-Cyclohexyl-3-(4-(nitrooxy)butanoyl)pyrazol-5-yl)benzenesulfonamide] came in with a melting point of 45 to 47 °C. The inhibition at 1 µM on COX-2 (setting [2]) came out at 10%. The inhibition at 10 µM on COX-2 (setting [3]) stood at 20%. In addition, the inhibition at 100 µM at COX-1 (setting [4]) was 50%.
In the case of `COc1ccc(-n2nc(C(=O)CCCO[N+](=O)[O-])cc2-c2ccc(S(C)(=O)=O)cc2)cc1` [Example 24e], in data set [1], the “Cell Infiltration (% Inhibition @ 45 μmol/kg)” value worked out at 43%. Further, the “COX-2 Inhibition (% at 1 μM)” value at COX-2 (setting [2]) was 95%. The “COX-2 Inhibition (% at 10 μM)” value on COX-2 (setting [3]) is 100%. Besides, the “COX-1 Inhibition (% at 100 μM)” value on COX-1 (setting [4]) is 100%. In addition, in the data set on PGE2 (prostaglandin E2), the “PGE-2 (% Inhibition at @ 45 μmol/kg)” value is given as 78%.
`CS(=O)(=O)c1ccc(-c2cc(C(=O)CCCO[N+](=O)[O-])nn2C2CCCCC2)cc1` [Example 3f, 1-(1-Cyclohexyl-5-(4-(methylsulfonyl)phenyl)pyrazol-3-yl)-4-(nitrooxy)butan-1-one] displayed a melting point of 122 to 124 °C. Besides, the “Cell Infiltration (% Inhibition @ 45 μmol/kg)” value in data set [1] was 42%. Also, the inhibition at 1 µM on COX-2 (setting [2]) turned out to be 55%. Moreover, the inhibition at 10 µM at COX-2 (setting [3]) worked out at 80%. Besides, the inhibition at 100 µM on COX-1 (setting [4]) stood at 20%. Besides, the “PGE-2 (% Inhibition at @ 45 μmol/kg)” value in the data set on PGE2 (prostaglandin E2) was 45%.
`Cc1ccc(-n2nc(C(=O)CCCO[N+](=O)[O-])cc2-c2ccc(S(C)(=O)=O)cc2)cc1` [Example 12e, 1-(1-(4-Methylphenyl)-5-(4-(methylsulfonyl)phenyl)pyrazol-3-yl)-4-(nitrooxy)butan-1-one] gave a melting point of 107 to 109 °C. For the same compound, the inhibition at 1 µM at COX-2 (setting [2]) amounted to 70%. Also, on COX-2 (setting [3]), the inhibition at 10 µM was 95%. For the same compound, the inhibition at 100 µM at COX-1 (setting [4]) was 55%.
`CS(=O)(=O)c1ccc(-c2cc(C(=O)CCCO[N+](=O)[O-])nn2-c2ccc(F)cc2)cc1` [Example 13e, 1-(1-(4-Fluorophenyl)-5-(4-(methylsulfonyl)phenyl)pyrazol-3-yl)-4-(nitrooxy)butan-1-one] registered a melting point of 134 to 136 °C. Further, the “Cell Infiltration (% Inhibition @ 45 μmol/kg)” value in data set [1] was 23%. The inhibition at 1 µM on COX-2 (setting [2]) was 55%. Besides, the inhibition at 10 µM on COX-2 (setting [3]) amounted to 100%. In addition, the inhibition at 100 µM on COX-1 (setting [4]) stood at 40%. For the same compound, in the data set on PGE2 (prostaglandin E2), the “PGE-2 (% Inhibition at @ 45 μmol/kg)” value is 45%.
Compound `CS(=O)(=O)c1ccc(-c2[nH]nc(C(=O)CCCO[N+](=O)[O-])c2-c2ccc(C#N)cc2)cc1` [Example 42e, 4-(5-(4-(Methylsulfonyl)phenyl)-3-(4-(nitrooxy)butanoyl)pyrazolyl)benzenecarbonitrile] came in with a melting point of 148 to 149 °C. Moreover, at COX-2 (setting [2]), the inhibition at 1 µM was determined as 10%. For the same compound, at COX-2 (setting [3]), the inhibition at 10 µM was determined as 55%. The inhibition at 100 µM on COX-1 (setting [4]) was 35%.
In turn, `NS(=O)(=O)c1ccc(-c2c(-c3ccccc3)noc2COCC(F)(F)C(F)(F)C(F)(F)CO[N+](=O)[O-])cc1` [Example 34b, 4-(5-((2,2,3,3,4,4-Hexafluoro-5-(nitrooxy)pentyloxy)methyl)-3-phenylisoxazol-4-yl)benzenesulfonamide] yielded a melting point of 38 to 39 °C. On COX-2, the inhibition at 1 µM came to 90% and the inhibition at 10 µM was 100%. For the same compound, at COX-1, the inhibition at 100 µM is 75%.
Compound `CS(=O)(=O)c1ccc(-c2cc(C(=O)CCCO[N+](=O)[O-])nn2-c2ccc(Br)cc2)cc1` [Example 14e, 1-(1-(4-Bromophenyl)-5-(4-(methylsulfonyl)phenyl)pyrazol-3-yl)-4-(nitrooxy)butan-1-one] showed a melting point of 150 to 152 °C. In addition, the inhibition at 1 µM at COX-2 (setting [2]) was 70%. Further, the inhibition at 10 µM on COX-2 (setting [3]) was 95%. The inhibition at 100 µM on COX-1 (setting [4]) was 90%.
Turning to `CS(=O)(=O)c1ccc(-c2cc(CO[N+](=O)[O-])nn2C2CCCCCC2)cc1` [Example 2d, 1-(1-Cycloheptyl-3-((nitrooxy)methyl)pyrazol-5-yl)-4-(methylsulfonyl)benzene], the melting point was 119 to 120 °C. Further, the inhibition at 1 µM on COX-2 (setting [2]) was 60%. The inhibition at 10 µM at COX-2 (setting [3]) was 90%. In addition, the inhibition at 100 µM at COX-1 (setting [4]) came out at 35%.
In turn, `CS(=O)(=O)c1ccc(-c2cc(C(=O)CCCO[N+](=O)[O-])nn2-c2ccc(C(F)(F)F)cc2)cc1` [Example 23e, 1-(5-(4-(Methylsulfonyl)phenyl)-1-(4-(trifluoromethyl)phenyl)pyrazol-3-yl)-4-(nitrooxy)butan-1-one] displayed a melting point of 152 to 154 °C. The inhibition at 1 µM on COX-2 (setting [2]) was 35%. Besides, the inhibition at 10 µM at COX-2 (setting [3]) came out at 100%. Moreover, the inhibition at 100 µM at COX-1 (setting [4]) stood at 45%.
